Earlier results, collected in patent US8664187B2, “Methods of treatment of endobronchial infections” (Novartis AG, priority 2004, dated 2014).
Read-outs that look alike come from different tables or passages of the source.

What was measured:
[1] = test system: P. aeruginosa isolates; conditions: CF patients, 1993
[2] = test system: P. aeruginosa; conditions: 600 mg tid aerosolized; 71 CF patients
[3] = test system: Gram-negative bacteria
[4] = test system: P. aeruginosa; conditions: 300 mg inhaled twice daily, P<0.001 vs placebo

**Q.** Which “MICs of 90% of isolates” value [1] does the source give for NC[C@H]1O[C@H](O[C@H]2[C@H](O)[C@@H](O[C@H]3O[C@H](CO)[C@@H](O)[C@H](N)[C@H]3O)[C@H](N)C[C@@H]2N)[C@H](N)C[C@@H]1O [tobramycin] here?
**A.** The value was no more than 16 µg/mL.

**Q.** What about the “MICs of 98% of all isolates” value [1] of the same compound?
**A.** Its value is no more than 128 µg/mL.

**Q.** What about the spirometry [2] of the same compound?
**A.** Its spirometry is “improved spirometry”.

**Q.** And the “sputum density of P. aeruginosa” value [2]?
**A.** Its value is “significant reduction in sputum density”.

**Q.** And the “concentrations effective in inhibiting the growth of many Gram-negative bacteria” value [3]?
**A.** Its value is less than 4 µg/mL.

**Q.** And the “average decrease in P. aeruginosa density” value ([4]; 28 days on/28 days off, Week 0 to Week 20)?
**A.** Its value is 0.8 log10.

**Q.** And the “average decrease in P. aeruginosa density” value ([4]; Week 0 to Week 4)?
**A.** Its value is 1.9 log10.
